Structures can show the parent of a compound that is named as a salt. Where only a bound is given, the exact number is not on record here.

This experiment concerns cellular pERK in NCI-H1975 cells (EGFR/L858R-T790M). Kind of experiment: pERK potency assay (In Cell ELISA). The conditions noted are these: Homo sapiens, 1 h compound incubation. Format: cell-based. An excerpt: The assay measures the ability of a compound to inhibit SOS1 function in cells. SOS1 activates RAS proteins by catalyzing the conversion of RAS GDP to RAS GTP in response to receptor tyrosine kinase activation. Activation of RAS induces a sequence of cellular signaling events that result in increased phosphorylation of ERK at Threonine 202 and Tyrosine 204 (pERK). The procedure (i.e., In Cell ELISA as described below) measures the level of cellular pERK in response to a test compound in NCI-H1975 cells (EGFR/L858R-T790M).
First, NCI-H1975 cells were grown and maintained using media and procedures recommended by the ATCC. A day before compound addition, cells were plated in poly-D-lysine coated 96-well cell culture plates (Corning® BioCoat® Cat #356640) at 25000 cells/well/100 μL and grown overnight in an incubator at 37° C. with 5% CO2. A solution of a test compound was prepared with 3-fold serial dilutions in DMSO having a top concentration of 6 mM. On the day of the assay, 50 μL of a test compound dilution in media was added to each well of cell culture plate with a final compound concentration in the range of 0.001 μM to 20 μM. After addition of the compound, cells were incubated for 1 h at 37° C. with 5% CO2, after which the culture medium was removed. Cells were fixed with 4% formaldehyde in phosphate-buffered saline (PBS) and incubated at RT for 20 min. The plate was washed three times with PBST (PBS with 0.05% Tween®-20), followed by incubation with 100 μL of pre-cooled methanol at −20° C. for 20 min. After incubation, methanol was removed. The plate was again washed with PBST. Cells were then permeabilized with 100 μL/well of 0.1% Triton X-100 in PBS at RT for 20 min and then quenched with a quenching buffer (PBST containing 1% H2O2 and 0.1% sodium azide) for 20 min at RT with gentle shaking. After washing once with PBST, a blocking buffer (250 uL/well, Pierce™ Protein-Free-PBS Blocking Buffer, Cat #37572) was then added to the cells for 1-h incubation at RT, followed by an anti-pERK antibody (cell signaling, 1:1000 dilution in 5% BSA in PBST) incubation overnight at 4° C. and a secondary antibody-HRP (Jackson immunoresearch, 1:3000 dilution in 5% BSA in PBST) incubation at RT for 1 h. PBST wash was carried out after each step three times. Before the addition of a substrate (Advansta ELISABright™), the plate was washed with PBS twice to remove detergent residues. The Cellular pERK level was determined using the microplate reader (Biotek Synergy™ H1) to detect the chemiluminescence signal. IC50 was determined by fitting a 4-parameter sigmoidal concentration-response model.
On the technique in general: An ELISA detects its analyte on a solid surface through an enzyme-linked reagent.
What is called IC50 is the concentration needed to halve the response being measured. Regarding `CC(=O)N1CCC(F)(c2cc3/c(=N/[C@H](C)c4cccc(C(F)(F)F)c4C)nc(C)n(C)c3cn2)CC1` [Compound 1, (R,Z)-1-(4-(1,2-dimethyl-4-((1-(2-methyl-3-(trifluoromethyl)phenyl)ethyl)imino)-1,4-dihydropyrido[3,4-d]pyrimidin-6-yl)-4-fluoropiperidin-1-yl)ethan-1-one], the IC50 was under 100 nM. In the case of `CC(=O)N1CC=C(c2cc3/c(=N/[C@H](C)c4cccc(C(F)(F)F)c4C)nc(C)n(C)c3cn2)CC1` [Compound 2, (R,Z)-1-(4-(1,2-dimethyl-4-((1-(2-methyl-3-(trifluoromethyl)phenyl)ethyl)imino)-1,4-dihydropyrido[3,4-d]pyrimidin-6-yl)-3,6-dihydropyridin-1(2H)-yl)ethan-1-one] it was under 100 nM. For `CC(=O)N1CC=C(c2cc3/c(=N/[C@H](C)c4cccc(C(F)(F)F)c4C)nc(C4CC4)n(C)c3cn2)CC1` [Compound 3] the value was under 100 nM; for `CC(=O)N1CC=C(c2cc3/c(=N/[C@H](C)c4cccc(C(F)F)c4F)nc(C)n(C)c3cn2)CC1` [Compound 4, (R,Z)-1-(4-(4-((1-(3-(difluoromethyl)-2-fluorophenyl)ethyl)imino)-1,2-dimethyl-1,4-dihydropyrido[3,4-d]pyrimidin-6-yl)-3,6-dihydropyridin-1(2H)-yl)ethan-1-one], under 100 nM. With `CC(=O)N1CCC(O)(c2cc3/c(=N/[C@H](C)c4cccc(C(F)F)c4F)nc(C)n(C)c3cn2)CC1` [Compound 5, (R,Z)-1-(4-(4-((1-(3-(difluoromethyl)-2-fluorophenyl)ethyl)imino)-1,2-dimethyl-1,4-dihydropyrido[3,4-d]pyrimidin-6-yl)-4-hydroxypiperidin-1-yl)ethan-1-one], the half-maximal inhibitory concentration (IC50) was under 100 nM.

`CC(=O)N1CCC(F)(c2cc3/c(=N/[C@H](C)c4cccc(C(F)F)c4F)nc(C)n(C)c3cn2)CC1` [Compound 6, (R,Z)-1-(4-(4-((1-(3-(difluoromethyl)-2-fluorophenyl)ethyl)imino)-1,2-dimethyl-1,4-dihydropyrido[3,4-d]pyrimidin-6-yl)-4-fluoropiperidin-1-yl)ethan-1-one]: the half-maximal inhibitory concentration (IC50) is under 100 nM.

For `CC(=O)N1CC=C(c2cc3/c(=N/[C@H](C)c4cccc(C#N)c4C)nc(C)n(C)c3cn2)CC1` [Compound 7], the half-maximal inhibitory concentration (IC50) was under 100 nM. For `CC(=O)N1CCC(F)(c2cc3/c(=N/[C@H](C)c4cccc(C#N)c4C)nc(C)n(C)c3cn2)CC1` [Compound 8] the value was under 100 nM; for `CC(=O)N1CC=C(c2cc3/c(=N/[C@H](C)c4cccc(C(F)(F)F)c4C)nc(C)n(C(C)C)c3cn2)CC1` [Compound 9], under 100 nM; for `CC(=O)N1CC=C(c2cc3/c(=N/[C@H](C)c4cccc(C(F)(F)F)c4C)nc(C)n(C4CC4)c3cn2)CC1` [Compound 10], under 100 nM. For `C#C[C@@H](/N=c1\nc(C)n(C)c2cnc(C3=CCN(C(C)=O)CC3)cc12)c1cccc(C(F)(F)F)c1C` [Compound 11] the value was under 100 nM; for `CC(=O)N1CC=C(c2cnc3c(c2)/c(=N/[C@H](C)c2cccc(C(F)(F)F)c2C)nc(C)n3C)CC1` [Compound 12], under 100 nM; for `CC(=O)N1CCC(F)(c2cnc3c(c2)/c(=N/[C@H](C)c2cccc(C(F)(F)F)c2C)nc(C)n3C)CC1` [Compound 13], under 100 nM. In the case of `CC(=O)N1CC=C(c2cc3/c(=N/[C@H](C)c4cccc(C(F)(F)F)c4C)ncn(C4CC4)c3cn2)CC1` [Compound 14] it was under 100 nM; in that of `CC(=O)N1CCC(F)(c2cc3/c(=N/[C@H](C)c4cccc(C(F)(F)F)c4C)ncn(C)c3cn2)CC1` [Compound 15, (R,Z)-1-(4-fluoro-4-(1-methyl-4-((1-(2-methyl-3-(trifluoromethyl)phenyl)-ethyl)imino)-1,4-dihydropyrido[3,4-d]pyrimidin-6-yl)piperidin-1-yl)ethan-1-one hydrochloride], under 100 nM; in that of `CC(=O)N1CC=C(c2cc3/c(=N/[C@H](C)c4cccc(C(F)(F)F)c4C)ncn(C)c3cn2)CC1` [Compound 16], under 100 nM. For the compound `CC(=O)N1CCC(F)(c2ccc3c(c2)/c(=N/[C@H](C)c2cccc(C(F)(F)F)c2C)ncn3C)CC1` [Compound 17], the IC50 was under 100 nM. On to `Cc1c([C@@H](C)/N=c2\nc(C)n(C)c3cnc(C4(C(F)F)CC4)cc23)cccc1C(F)(F)F` [Compound 18, (R,Z)-6-(1-(difluoromethyl)cyclopropyl)-1,2-dimethyl-N-(1-(2-methyl-3-(trifluoromethyl)phenyl)ethyl)pyrido[3,4-d]pyrimidin-4(1H)-imine], for which the half-maximal inhibitory concentration (IC50) was under 100 nM. For `Cc1c(C#N)cccc1[C@@H](C)/N=c1\nc(C)n(C)c2cnc(C3(C(F)F)CC3)cc12` [Compound 19] the value was under 100 nM; for `C[C@@H](/N=c1\ncn(C)c2cnc(C3(C(F)F)CC3)cc12)c1cccc(C(F)F)c1F` [Compound 20, (R,Z)—N-(1-(3-(difluoromethyl)-2-fluorophenyl)ethyl)-6-(1-(difluoromethyl)-cyclopropyl)-1-methylpyrido[3,4-d]pyrimidin-4(1H)-imine], under 100 nM. Take `C#C[C@@H](/N=c1\ncn(C)c2cc(=O)n(C3(C(F)F)CC3)cc12)c1cccc(C(F)(F)F)c1C` [Compound 21, (R,Z)-6-(1-(difluoromethyl)cyclopropyl)-1-methyl-4-((1-(2-methyl-3-(trifluoromethyl)phenyl)prop-2-yn-1-yl)imino)-4,6-dihydropyrido[4,3-d]pyrimidin-7(1H)-one]: the IC50 is under 100 nM. Consider `COc1nc(C2(O)CCN(C(C)=O)CC2)cc2/c(=N/[C@H](C)c3cccc(C(F)(F)F)c3C)ncn(C)c12` [Compound 22, (R,Z)-1-(4-hydroxy-4-(8-methoxy-1-methyl-4-((1-(2-methyl-3-(trifluoromethyl)phenyl)ethyl)imino)-1,4-dihydropyrido[3,4-d]pyrimidin-6-yl)piperidin-1-yl)ethan-1-one], for which the IC50 is under 100 nM. Take `COc1nc(C2(F)CCN(C(C)=O)CC2)cc2/c(=N/[C@H](C)c3cccc(C(F)(F)F)c3C)ncn(C)c12` [Compound 23, (R,Z)-1-(4-fluoro-4-(8-methoxy-1-methyl-4-((1-(2-methyl-3-(trifluoromethyl)phenyl)ethyl)imino)-1,4-dihydropyrido[3,4-d]pyrimidin-6-yl)piperidin-1-yl)ethan-1-one]: the IC50 is under 100 nM.

With `COc1nc(C2(O)CC(C)(C)N(C(C)=O)C(C)(C)C2)cc2/c(=N/[C@H](C)c3cccc(C(F)(F)F)c3C)ncn(C)c12` [Compound 24, (R,Z)-1-(4-hydroxy-4-(8-methoxy-1-methyl-4-((1-(2-methyl-3-(trifluoromethyl)phenyl)ethyl)imino)-1,4-dihydropyrido[3,4-d]pyrimidin-6-yl)-2,2,6,6-tetramethylpiperidin-1-yl)ethan-1-one], the IC50 is under 100 nM. As for `CC(=O)N1CC=C(c2cc3/c(=N/[C@H](C)c4cccc(C(F)(F)F)c4C)nc4n(c3cn2)CCC4)CC1` [Compound 25, (R,Z)-1-(4-(5-((1-(2-methyl-3-(trifluoromethyl)phenyl)ethyl)imino)-5,7,8,9-tetrahydropyrido[4,3-e]pyrrolo[1,2-a]pyrimidin-3-yl)-3,6-dihydropyridin-1(2H)-yl)ethan-1-one], the IC50 is under 100 nM. Take `CC(=O)N1CCC(O)(c2cc3/c(=N/[C@H](C)c4cccc(C(F)(F)F)c4C)nc4n(c3cn2)CCC4)CC1` [Compound 26, (R,Z)-1-(4-hydroxy-4-(5-((1-(2-methyl-3-(trifluoromethyl)phenyl)ethyl)-imino)-5,7,8,9-tetrahydropyrido[4,3-e]pyrrolo[1,2-a]pyrimidin-3-yl)piperidin-1-yl)ethan-1-one]: the IC50 is under 100 nM. As for `CC(=O)N1CCC(F)(c2cc3/c(=N/[C@H](C)c4cccc(C(F)(F)F)c4C)nc4n(c3cn2)CCC4)CC1` [Compound 27, (R,Z)-1-(4-fluoro-4-(5-((1-(2-methyl-3-(trifluoromethyl)phenyl)ethyl)-imino)-5,7,8,9-tetrahydropyrido[4,3-e]pyrrolo[1,2-a]pyrimidin-3-yl)piperidin-1-yl)ethan-1-one], the IC50 was under 100 nM.

As to `CC(=O)N1CCC(O)(c2cc3/c(=N/[C@H](C)c4cccc(C(F)F)c4F)nc4n(c3cn2)CCC4)CC1` [Compound 28], the IC50 is under 100 nM.

For the compound `CC(=O)N1CCC(F)(c2cc3/c(=N/[C@H](C)c4cccc(C(F)F)c4F)nc4n(c3cn2)CCC4)CC1` [Compound 29], the 50% inhibitory concentration (IC50) was under 100 nM.
